US10183030B2, “17α,21-diesters of cortexolone for use in the treatment of tumors” (COSMO TECHNOLOGIES LTD., priority 2014, dated 2019)
Where two headings read alike, the source gives them in different places.

Experiments:
[1] = tested on: stimulated PBMC (actively dividing cells); test: IC50 on stimulated PBMC (intrinsic toxicity); assay type: cell-based; conditions: Homo sapiens, stimulated PBMC
Procedure: (§2) The IC50 in PBMC were tested in 2 different activation status: • stimulated—actively dividing cells • resting—quiescent, non-dividing cells
(§3) IC50 of the compounds was determined on fresh cells isolated from human blood (PBMC).

[2] = In vivo pharmacokinetics in mouse plasma; conditions: mice; iv 20 mg/kg, SC 40 mg/kg, PO 40 mg/kg
Procedure: The pharmacokinetic of CB-03-10 was evaluated in plasma of mice after intravenous (IV), subcutaneous (SC) and oral administration (PO).
Mice (3 per group) were administered with the following doses, blood was collected at the indicated times. Plasma samples were analyzed by HPLC-MS/MS.

[3] = tested on: Caspase 8, 9 and 3/7 in LNCaP cells; test: Caspase activity in LNCaP cells; assay type: cell-based, human; conditions: 24 hours
Procedure: After 24 hours test compounds were added to cells, Gemcitabine (a known pancreatic cancer chemotherapeutic agent) and DMSO were used as positive and negative control, respectively. After 8, 24, & 48 hours incubation with test compounds, cells were lysed in buffer containing the caspase 3/7 or 8 or 9 substrate and a stable luciferase in proprietary buffers. The lysates were transferred to white opaque plates before measuring luminescence in a Tecan Safire instrument. Parallel plates treated identically, were used to determine viable cells. All caspase activities were corrected for the number of viable cells.
Same assay was repeated using LNCaP prostate cancer cell lines (FIG. 12). […] The results are shown in FIG. 12 at 24 hours incubation when the caspase activities peaked.

[4] = tested on: PSA secretion from LNCaP prostate cancer cells; test: PSA secretion from LNCaP cells (Elisa); assay type: cell-based; conditions: Homo sapiens, 48 hours, read-out: IC50, inhibition of PSA secretion
Procedure: (§1) Prostate-specific antigen, or PSA, is a protein produced by cells of the prostate gland. The PSA test measures the level of PSA in a person's blood. The blood level of PSA is often elevated in men with prostate cancer and it used as surrogate marker to test prostate cancer progression in human population. After the observation that CB-03-10 was able to inhibit in vivo the growth of prostate cancer, the capability of the compound to inhibit in vitro PSA secretion from cancer cells was determined. […] After 48 hours incubation with test compounds, supernatants were harvested and tested with an Elisa assay for PSA and same cells were lysed for cell viability assessment.

[5] = tested on: resting PBMC (quiescent, non-dividing cells); test: IC50 on resting PBMC (intrinsic toxicity); assay type: cell-based; conditions: Homo sapiens, resting PBMC
Procedure: as §2, §3

LNCaP xenograft tumor = test: LNCaP human prostate cancer xenograft in nude mice, oral dosing; assay type: in vivo, mouse
Procedure: 3×10^6 LNCaP cells suspended in matrigel were subcutaneously injected (on the right flank) into 6 week old male athymic nude mice. Tumors were measured as described above. Treatment with CB-03-10 and controls compounds was initiated after the tumor had reached 50 mm^3. […] Oral dosing was daily (100 mg/Kg in 200 μL/mouse) for 28 consecutive days. Results were plotted as average change in tumor volume relative to the start of treatment.

LNCaP cells = test: LNCaP cell viability in the PSA secretion experiment; assay type: cell-based; conditions: Homo sapiens, 48 hours, same cells as PSA assay
Procedure: as §1, with “population.” for “population. After the observation that CB-03-10 was able to inhibit in vivo the growth of prostate cancer, the capability of the compound to inhibit in vitro PSA secretion from cancer cells was determined.”

Glucocorticoid Receptor = biological target: T1, Glucocorticoid Receptor (Homo sapiens, UniProt P04150); test: GR reporter assay, antagonist mode; assay type: cell-based; conditions: FIG. 7
T1 construct: endogenous in cells; host or cells: human kidney epithelial cells
T1 sequence (P04150 1-777): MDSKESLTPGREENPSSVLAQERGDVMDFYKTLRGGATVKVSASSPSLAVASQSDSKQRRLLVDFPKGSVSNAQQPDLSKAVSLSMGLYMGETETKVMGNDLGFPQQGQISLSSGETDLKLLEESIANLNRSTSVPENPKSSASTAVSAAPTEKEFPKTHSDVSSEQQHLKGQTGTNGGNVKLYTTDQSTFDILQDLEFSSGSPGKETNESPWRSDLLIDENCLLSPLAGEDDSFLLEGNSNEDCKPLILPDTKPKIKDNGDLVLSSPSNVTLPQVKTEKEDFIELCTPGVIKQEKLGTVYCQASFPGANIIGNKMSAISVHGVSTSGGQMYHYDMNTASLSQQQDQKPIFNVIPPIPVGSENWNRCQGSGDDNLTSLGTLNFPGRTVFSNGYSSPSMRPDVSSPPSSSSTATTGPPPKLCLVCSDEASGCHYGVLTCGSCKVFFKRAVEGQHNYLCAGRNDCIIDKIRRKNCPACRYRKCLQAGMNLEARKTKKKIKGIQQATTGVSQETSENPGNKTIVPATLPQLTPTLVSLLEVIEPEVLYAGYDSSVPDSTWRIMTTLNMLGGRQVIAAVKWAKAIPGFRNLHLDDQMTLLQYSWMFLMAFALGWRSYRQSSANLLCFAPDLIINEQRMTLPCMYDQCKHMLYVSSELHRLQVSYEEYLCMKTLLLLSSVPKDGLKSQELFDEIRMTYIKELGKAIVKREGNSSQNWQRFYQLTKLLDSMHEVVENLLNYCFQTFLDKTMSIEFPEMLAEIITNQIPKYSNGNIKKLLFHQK
Procedure: The androgen and glucocorticoid hormones elicit divergent and often opposing effects in cells, tissues, and animals. […] CB-03-10 GR antagonist and agonist activities were tested in an in vitro assay. Briefly, human kidney epithelial cells were transfected with DNA construct containing GR binding sites linked to luminescent based reporter molecule. After 24 hours, cells were treated under antagonist or agonist modes. After an additional 24 hours, luminescence which is proportional to GR agonist transcriptional activity was quantitated.
Antagonist Assay was based on inhibition of luminescence induced by Dexamethasone (Dex).
The antagonist activity of CB-03-10 was compared to a known GR antagonist, Mifepristone (also called RU486) as shown in FIG. 7.

Compound: CCCCC(=O)O[C@]1(C(=O)COC(=O)CC)CC[C@H]2[C@@H]3CCC4=CC(=O)CC[C@]4(C)[C@H]3CC[C@@]21C [CB-03-10, cortexolone 17α-valerate-21-propionate]
- IC50 ([1]; Example 7, Experiment 1, read-out: IC50 (microM) on Stimulated PBMC): 106 µM
- IC50 ([1]; Example 7, Experiment 2, read-out: IC50 (microM) on Stimulated PBMC): 94 µM
- plasma level of parent compound [2]: undetectable in plasma even after 1 hour regardless of the administration route
- induction of Initiator (8 and 9) and Effector (3/7) caspase activities [3]: better than Enzalutamide
- IC50 [4]: 9 µM
- IC50 ([5]; Example 7, Experiment 1, read-out: IC50 (microM) on Resting PBMC): 114 µM
- IC50 ([5]; Example 7, Experiment 2, read-out: IC50 (microM) on Resting PBMC): 120 µM
- average tumor volume smaller than in the vehicle group (LNCaP xenograft tumor; 6 weeks after treatment was stopped, oral 100 mg/Kg): 3.6 times
- statistical significance of tumor growth versus vehicle (LNCaP xenograft tumor; FIG. 16, oral gavage): statistically significantly different from day 7 up to day 60
- IC50 (LNCaP cells): 11 µM
- GR antagonist potency relative to RU486 (Glucocorticoid Receptor): 10 times less
- GR antagonist activity (Glucocorticoid Receptor; inhibition of luminescence induced by Dexamethasone): potent antagonist
